Measurements: patent publication US20200276181A1, “THIENOISOQUINOLINES AND THEIR DERIVATIVES FOR TARGETING TUBULIN, CH-TOG, AURORA A KINASE, TPX2, CDK5RAP2 AND/OR ASPM” (VALORBEC, SEC, priority 2017, published 2020)

System: HCT116 spheroids
Assay: Multicellular tumour spheroids
Type: cell-based
Description: FIGS. 5A, 5B, 5C, 5D, 5E, 5F, 5G, 5H, 5I, 5J, 5K, 5L and 5M show how C75 disrupts or reduces the growth of HeLa, HCT116 and A549 spheroids. FIG. 5A) images show HeLa spheroids over time (3 days) before and after treatment with control (1 μM C87; n=10), 250 nM (n=6) or 500 nM (n=10) of C75. The scale bar is 100 μm. FIG. 5B) is a series images of HeLa spheroids after three days of treatment with control (500 nM C87) or 500 nM C75. The spheroids were stained for fluorescein diacetate (to detect live cells) and propidium iodide (to detect dead cells). […] The scale bar is 100 μm. FIG. 5C) is a line graph showing the change in spheroid area (μm^2) for each day and treatment as indicated. Bars show standard deviation and the asterisks are p<0.05 as determined by the student's t test. FIG. 5D) images show HeLa spheroids over 3 days before and after treatment with empty nanoparticles (control; n=3) or 250 nM of nanoparticle-encapsulated C75 (n=3). The scale bar is 100 μm. […] Bars show standard deviation and the asterisks are p<0.05 as determined by the student's t test. FIG. 5F) is a series of images of HCT116 spheroids treated with control (1 μM C87; n=10), 500 nM C75 (n=10) and 1 μM C75 (n=10). FIG. 5G) is a series images of HCT116 spheroids after six days of treatment with control (1 μM C87) or 1 μM C75. The spheroids were stained for fluorescein diacetate (live cells) and propidium iodide (dead cells). […] FIG. 5H) is a line graph showing the growth in surface area (%) of HCT116 spheroids treated with control (1 μM C87), 500 nM C75 and 1 μM C75 after six days. FIG. 5I) is a series of images of A549 spheroids treated with control (1 μM C87, n=6), 500 nM C75 (n=6), and 1 μM C75 (n=6) over 5 days. The scale bar is 100 μm. FIG. 5J) is a series of images of A549 spheroids after six days of treatment with control (750 nM C87) or 1 μM C75. The spheroids were stained for fluorescein diacetate (live cells) and propidium iodide (dead cells). […] Bars show standard deviation and the asterisks are p<0.05 as determined by the student's t test. FIG. 5L) images show A549 spheroids over 6 days before and after treatment with empty nanoparticles (control; n=3) or 500 nM of nanoparticle-encapsulated C75 (n=3). The scale bar is 100 μm. […] Bars show standard deviation and the asterisks are p<0.05 as determined by the student's t test.
FIG. 11A) is a series of images of HCT116 spheroids treated with control (DMSO), 10 nM paclitaxel, 250 nM C75 or both for 6 days. […] The scale bar for the images is 100 μm. […] As shown in the images, adding paclitaxel and C75 in combination led to regression in spheroid size compared to each treatment on its own.
The thienoisoquinoline compounds may also have potential for use in combinatorial therapies. […]

Structure (SMILES): COc1ccc(S(=O)(=O)N2Cc3ccccc3-c3sc(Br)cc32)cc1 [Compound C75]
- spheroid growth, single drug (10 nM paclitaxel or 250 nM C75 alone, 6 days): failed to grow
- spheroid growth, combination (250 nM C75 + 10 nM paclitaxel, 6 days): regressed in size
- effect on spheroids (HCT116 spheroids): regress the growth
